The values that follow come from article PMC10787398, “Simultaneous determination of colistin sulfate and tigecycline in human plasma by liquid chromatography-tandem mass spectrometry method” (BMC Chemistry, 2024).

Where a name gives a salt, the structure may show the parent alone. Where a SMILES comes first, the peptide text is derived from it. Bridges are numbered along the chain shown (N, C = ends). [ ]: non-standard residue; d: D form. The star is where a group is joined. X1 = CC[C@H](C)CCCCC(=O)*; Dab = NCC[C@H](N)C(=O)O

Data set [1] in a line: Stability of analytes in spiked plasma samples under storage conditions. In kind it is in vitro ADME, human. The note with it: for Measured value, Stored at -80℃ for 7 days / Measured value, Automatic sampler 15℃ for 24 h / Measured value, Freeze-thaw for 3 cycles / Measured value, At 4℃ for 12 h / Measured value, At room temperature for 6 h: HPLC-MS/MS, n = 5; for Measured value, Automatic sampler 15℃ for 24 h: automatic sampler 15 ℃ 24 h; for Measured value, Freeze-thaw for 3 cycles: frozen at -80 °C and thawed at room temperature; for Measured value, At 4℃ for 12 h: refrigerator 4 °C 12 h. As to the method:
Plasma samples with low, medium, and high mass concentrations were prepared (the mass concentrations of colistin sulfate were 0.1, 1, and 8 µg/mL, respectively, and those of tigecycline were 0.05, 0.5, and 4 µg/mL, respectively). Five replicates of each concentration were prepared and placed in a refrigerator at 4 °C for 12 h, at room temperature for 6 h, and in an automatic sampler at 15 ℃ for 24 h. The samples were, on three occasions, frozen at − 80 °C and thawed at room temperature, and then placed in a − 80 °C refrigerator for seven days. The concentrations and RSDs of colistin sulfate and tigecycline in the plasma samples were calculated based on the accompanying standard curve of the day to evaluate their stabilities.

The nature of data set [2]: Plasma trough and peak concentrations in patients on intravenous polymyxin and tigecycline (HPLC-MS/MS). The note with it: human, in vivo, iv, iv. An excerpt: Plasma samples were collected from patients receiving simultaneous intravenous polymyxin and tigecycline treatment. Inclusion criteria: ① Patients receiving simultaneous intravenous polymyxin and tigecycline treatment; ② Age ≥ 18 years; ③ Patients who consent to the monitoring of polymyxin and tigecycline blood drug concentrations during treatment. Exclusion criteria: ① Pregnant or lactating women; ② Treatment duration < 3 days; ③ Local administration; ④ Blood dialysis treatment. Once the blood drug concentration reached a steady state, 3 ml of venous blood was collected before and 30 min after the seventh administration to measure the peak and trough concentrations. This study was conducted with approval from the Ethics Committee of Second Hospital of Hebei Medical University (2020-R551). This study was conducted in accordance with the declaration of Helsinki.
Two hundred microliters of the plasma sample were adopted, with 20 µL of the internal standard added, and it was vortexed for 20 s. Two hundred microliters of 5% trichloroacetic acid was added for acidification and vortexed for 10 s. Two hundred microliters of methanol was added for extraction, vortexed for 2 min, and centrifuged at 10,900 r/min for 5 min. Two hundred microliters of the supernatant were aspirated into the injection bottle, and 10 µL of the sample was injected for the HPLC–MS/MS analysis.
All patients received an initial dose of 100 mg and a maintenance dose of 50 mg q12h for tigecycline. Three milliliters of venous blood were collected before and after the seventh administration to measure the peak and trough concentrations of the drugs.

For data set [3] the following is noted: within 8 h after administration; no reference given; cited from earlier work. The source says: The PK process of the drug in the body is often affected in patients with serious diseases accompanied by microcirculation disorders, hypoproteinemia, liver and kidney insufficiency, and other special pathophysiological states. Large fluctuations in plasma drug concentrations are commonly observed in these cases. TDM can aid in the optimization of administration dosage, individualized dosing, and anti-infective efficacy. Since colistin sulfate has not undergone modern drug development procedures, the current pharmacokinetic data remain unclear, and the plasma concentration is closely correlate ...

The mark [4] stands for this setting: plasma QC high, nominal colistin sulfate 8 µg/mL, tigecycline 4 µg/mL.
Setting [5] is: plasma QC low, nominal colistin sulfate 0.1 µg/mL, tigecycline 0.05 µg/mL.
Where [6] appears, read: plasma QC medium, nominal colistin sulfate 1 µg/mL, tigecycline 0.5 µg/mL.

The Cmax is the maximum level reached in the sampled fluid or tissue. On to `CC[C@H](C)CCCCC(=O)N[C@@H](CCN)C(=O)N[C@H](C(=O)N[C@@H](CCN)C(=O)N[C@H]1CCNC(=O)[C@H]([C@@H](C)O)NC(=O)[C@H](CCN)NC(=O)[C@H](CCN)NC(=O)[C@H](CC(C)C)NC(=O)[C@@H](CC(C)C)NC(=O)[C@H](CCN)NC1=O)[C@@H](C)O` [Colistin sulfate, colistin sulfate] (X1-[Dab]T[Dab][Dab][Dab][dL]L[Dab][Dab]T; lactam 4-C), for which the “Measured value, Stored at -80℃ for 7 days” value in data set [1] (plasma QC high, nominal colistin sulfate 8 µg/mL, tigecycline 4 µg/mL, -80 °C 7 days) was 8.30 ± 0.32 µg/mL; in data set [1] (plasma QC low, nominal colistin sulfate 0.1 µg/mL, tigecycline 0.05 µg/mL, -80 °C 7 days), 0.10 ± 0.00 µg/mL; in data set [1] (plasma QC medium, nominal colistin sulfate 1 µg/mL, tigecycline 0.5 µg/mL, -80 °C 7 days), 0.98 ± 0.09 µg/mL. For the same compound, the “Measured value, Automatic sampler 15℃ for 24 h” value in data set [1] (setting [4]) was 8.17 ± 0.19 µg/mL; in data set [1] (setting [5]), 0.10 ± 0.00 µg/mL; in data set [1] (setting [6]) it was 0.93 ± 0.01 µg/mL. For the same compound, the “Measured value, Freeze-thaw for 3 cycles” value came out at 8.70 ± 0.54 µg/mL in data set [1] (setting [4]), 0.09 ± 0.00 µg/mL in data set [1] (setting [5]) and 1.04 ± 0.04 µg/mL in data set [1] (setting [6]). Moreover, the “Measured value, At 4℃ for 12 h” value amounted to 8.23 ± 0.61 µg/mL in data set [1] (setting [4]), 0.09 ± 0.01 µg/mL in data set [1] (setting [5]) and 0.93 ± 0.04 µg/mL in data set [1] (setting [6]). For the same compound, the “Measured value, At room temperature for 6 h” value in data set [1] (plasma QC high, nominal colistin sulfate 8 µg/mL, tigecycline 4 µg/mL, room temperature 6 h) amounted to 8.26 ± 0.30 µg/mL; in data set [1] (plasma QC low, nominal colistin sulfate 0.1 µg/mL, tigecycline 0.05 µg/mL, room temperature 6 h), 0.10 ± 0.00 µg/mL; in data set [1] (plasma QC medium, nominal colistin sulfate 1 µg/mL, tigecycline 0.5 µg/mL, room temperature 6 h), 1.00 ± 0.05 µg/mL. For the same compound, the “stability under the above conditions” value in data set [1] (plasma samples, 4 °C 12 h, room temperature 6 h, autosampler 15 ℃ 24 h, 3 freeze-thaw cycles, -80 °C 7 days) was “good stability”. The compound further yielded a level at 0.5 h in data set [2] (both, peak concentration of colistin sulfate, range over patients, 12 adult patients, steady state, after 7th administration, plasma, HPLC-MS/MS) of 890 to 4560 ng/mL. For the same compound, the highest level in data set [2] (female, 500000 IU) (Cmax) was 890 ng/mL. The “administered dose excreted in the urine” value in data set [3] is 40%.
